Experimental data taken from patent publication US9624491B2, “Methods and compositions for the detection and treatment of cancer involving miRNAs and miRNA inhibitors and targets” (Memorial Sloan Kettering Cancer Center, priority 2010, dated 2017).

Legend:
[1] = system: Pten, Ppp2r5e, Prkaa1 and Bim mRNA; assay: qRT-PCR of miR-19 target genes in FL5-12 cells; format: cell-based; conditions: FL5-12 cells and murine T-ALL samples
From the text: Total RNA and miRNA-enriched RNA were extracted from cells and tumor samples using Allprep DNA/RNA/Protein Kits (Qiagen) and miRNeasy Mini Kits (Qiagen), respectively. Pathological diagnosis was by expert hematopathologists at Weill Cornell Medical College. cDNA synthesis and qRT-PCR and analysis by the ΔΔ Ct method were as described (Mavrakis, et al., 2008). TaqMan Gene Expression Assays were used for Bcl2L11 (Mm00437796_m1), Dock5 (Mm00555757_m1), FoxO1 (Mm00490672_m1), FoxO3 (Mm01185722_m1), Ppp2r5e (Mm00803759_m1), Prkaa1 (Mm01296695_m1) and Pten (Mm01212532_m1). Mouse GAPD (GAPDH) (4352932) and miR-19b (000396) were from Applied Biosystems. Expression was normalized to RNU6B (001093, Applied Biosystems).

[2] = system: PPP2R5E, PRKAA1, BIM, PTEN, Bnip3, phosphorylated S6; assay: Immunoblot on lysates of transduced FL5-12 cells; format: cell-based, murine
Description: Immunoblots were performed from whole cell lysates as described (Wendel, et al., 2004). Briefly, 50 μg of protein/sample were resolved on SDS-PAGE gels and transferred to Immobilon-P-membranes (Millipore). Antibodies were against Prkaa1 (2532, 1:1000, Cell Signaling), Bim/Bcl2L11 (AAP-330, 1:1000, Assay Designs), FoxO1 (94545, 1:1000, Cell Signaling), FoxO3a (9467, 1:1000, Cell Signaling) Phospho-FoxO3a (94665, 1:1000, Cell Signaling), Ppp2r5e (NB 100-845, NOVUS), Pten (9559, 1:1000, Cell Signaling), tubulin (1:5000; Sigma, B-5-1-2), actin (1:5000; Sigma, AC-15), Bnip3 (3769, 1:1000, Cell Signaling), phosphorylated S6 (2215, 1:1000, Cell Signaling), phosphorylated Akt (4058, 1:1000, Cell Signaling) and Dock5 [a generous gift from Alan Hall (MSKCC)]. Enhanced chemiluminescence was used for detection (ECL, Amersham).

[3] = system: 3′UTR of Pten, Ppp2r5e, Prkaa1 and Bim; assay: Reporter assay for 3′UTR repression by miR-19; format: cell-based; conditions: wild type vs mutated miR-19 binding sites
From the text: FIG. 14. Reporter assay for 3′ untranslated region (3′UTR) repression by miR-19. The 3′UTR of the indicated genes was subcloned into a dual luciferase reporter construct (pSiCheck2) and inhibition of the 3′UTR by miR-19 is indicated as mean±SD ratio of Renila to Firefly luciferase activity (RLuc/Luc). WT indicates the wild type 3′UTR. M indicates the 3′UTR where the miR-19 binding site has been mutated. In the case of Pten, one site (M1) or both sites (M1+M2) were mutated [* indicates significant (p<0.05) changes; ** indicates non-significant (p>0.05) changes.]
The Dock5, Ppp2r5e, Prkaa1, and Bim 3′-UTR fragments were generated by PCR and cloned into the psi-CHECK-2 vector (Promega). The assays were performed as described (Xiao, et al., 2008). Binding site mutants were generated by site-directed mutagenesis.

[4] = system: PTEN, BCL2L11, PHF6, IKZF1, NF1, FBXW7; assay: 3′UTR reporter, quantitative PCR and immunoblot assays of tumor suppressor genes in murine leukemias; format: cell-based; conditions: murine T-ALLs expressing NOTCH1 and miRNA, mRNA, protein
Description: Immunoblots of whole cell lysates were performed as described (Wendel, et al., 2004). Antibodies were against Bim/Bcl2l11 (AAP-330, 1:1000, Assay Designs), Nf1 (sc67, 1:100, Santa Cruz), Cdc4/Fbxw7 (ab7405, 1:500, Abeam), Ikzf1 (sc-13039, 1:500, Santa Cruz), Phf6 (NB100-79861, 1:1000, Novus Biologicals), Pten (9559, 1:1000, Cell Signaling), tubulin (1:5000; Sigma, B-5-1-2) and actin (1:5000; Sigma, AC-15).
Total RNA and miRNA-enriched RNA was extracted using the Allprep DNA/RNA/Protein and miRNeasy Mini kits. Pathological diagnosis was by expert hematopathologists at Weill Cornell Medical Center. cDNA synthesis, PCR and analysis by the ΔΔ Ct method were as described (Mavrakis, et al., 2008) and utilized Taqman Gene Expression Assays: Bcl2l11 (Mm00437796_m1), BCL2L11 (Hs00197982_m1), Pten (Mm01212532_m1), PTEN (Hs02621230_s1), Nf1 (Mm00812430_m1), NF1 (Hs01035104_m1), Ikzf1 (Mm01187878_m1), IKZF1 (Hs00172991_m1), Fbxw7 (Mm00504452_m1), FBXW7 (Hs00217794_m1), Phf6 (Mm00804415_m1), and Mouse GAPD (GAPDH) (4352932, Applied Biosystems). Expression was normalized to RNU6B (001093, Applied Biosystems).
The mouse FBXW7 (bp 2793-4139; acc. no. NM_001177773), human NF1 (bp 10033-10666; acc. no NM_000267), human PHF6 (bp position 3271-4299; acc. no. NM_001015877) and Bim (bp. 3155-4773; acc. no. NM_009754) 3′UTR fragments were generated by PCR and cloned into the psi-CHECK-2 vector (Promega) with the exception of the IKZF1 3′UTR, which was purchased from Genecopoeia (cat no. HmiT000397b, by 2343-4471 of UTR). The assays were performed as described (Xiao, et al., 2008).

miR-19: miRNA of the 17˜92 cluster, UGUGCAAAUCCAUGCAAAACUGA (SEQ ID NO: 2); seed family in Table 3 (expressed or natural sequence; listed as Homo sapiens)
reductions in the mRNA levels of Pten, Ppp2r5r, Prkaa1 and Bim [1]: up to 2 × | Bnip3 protein ([2]; FL5-12 cells): neither miR-19 nor the antagomir had an effect on Bnip3 | PTEN protein ([2]; FL5-12 cells): no detectable effect on PTEN protein | miR-19 target protein levels ([2]; FL5-12 cells): clear reduction in PPP2R5E, PRKAA1, and BIM | ribosomal S6 phosphorylation ([2]; FL5-12 cells withdrawn from IL3 for 12 hours): directly activated ribosomal S6 phosphorylation | 3′UTR inhibition (RLuc/Luc) [3]: direct 3′ untranslated region (UTR) inhibition via the miR-19 binding sites | regulation of tumor suppressor genes [4]: regulates PTEN and BCL2L11 expression
